Here are results for one molecule from PMC13450841 (PLOS Pathogens, 2026).

In one test the test system is EGFP-tagged ExoU (S142A). In words: EGFP-ExoU (S142A) abundance and lysosome colocalisation in transfected HEK293T cells.
The target in the next test is T1, PLA2G4C (Homo sapiens, UniProt Q9UP65).
T1 construct: 6xHis (N); made in house; host or cells: E. coli C43(DE3)
T1 sequence (Q9UP65 1-541): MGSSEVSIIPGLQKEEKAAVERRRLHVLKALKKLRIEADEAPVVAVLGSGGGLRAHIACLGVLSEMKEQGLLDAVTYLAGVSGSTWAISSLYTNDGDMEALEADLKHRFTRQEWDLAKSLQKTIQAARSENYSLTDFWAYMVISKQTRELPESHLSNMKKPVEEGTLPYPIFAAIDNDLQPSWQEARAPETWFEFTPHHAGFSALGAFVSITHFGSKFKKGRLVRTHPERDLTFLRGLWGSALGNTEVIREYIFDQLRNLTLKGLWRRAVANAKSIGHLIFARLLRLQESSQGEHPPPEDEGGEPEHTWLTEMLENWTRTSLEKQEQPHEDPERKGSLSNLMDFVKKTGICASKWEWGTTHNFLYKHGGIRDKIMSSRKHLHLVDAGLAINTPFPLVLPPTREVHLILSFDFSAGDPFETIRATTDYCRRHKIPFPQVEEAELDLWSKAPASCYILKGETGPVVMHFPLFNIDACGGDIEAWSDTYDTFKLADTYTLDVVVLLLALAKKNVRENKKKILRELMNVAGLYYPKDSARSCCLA
In words: Human phospholipase assay, thio-BGPC substrate. It counts as biochemical. To be noted: 10 µM, S4 Fig. On the procedure:
Recombinant human PLA2G7 and PLA2G4C activities were measured in 96well, -well, UVtransparent microplates (Corning) in a final volume of 50 µL per well. Reactions were carried out in 20 mM […] TrisHCl-HCl (pH 8.2), 100 mM NaCl, and 0.01% Tween 20, with a 1% (v/v) final DMSO concentration. For PLA2G7, substrate cleavage was monitored using 0.6 mM 2-thio-PAF (Cambridge Bioscience Ltd), and for PLA2G4C, 0.6 mM arachidonoyl thio-bis-glycerophosphocholine (thioBGC-BGC; Cambridge Bioscience Ltd) was employed. In both assays, 1 mM DTNB (5,5′-dithiobis-(2nitrobenzoic acid), -nitrobenzoic acid), SigmaAldrich-Aldrich) served as the chromogenic reporter. Enzyme (500 nM final) was preequilibrated with buffer at 25 °C for 5 min before initiating-equilibrated with buffer at 25 °C for 5 min before initiating the reaction by substrate addition. Absorbance at 414 nm was recorded every minute for 1 h on a Hidex plate reader.
(B) ExoU activity was assessed using arachidonoyl thio-phosphatidylcholine (thio-PC) in the presence of 10 µM of the indicated compound. […] (TIF)

For test [1], the system named is T3SS gene expression in P. aeruginosa PA103 and PAO1. The experiment in a line: Quantitative RT-PCR of T3SS gene expression. Format: cell-based, Pseudomonas aeruginosa. The note with it: Bis 10 µM, Zp 2.5 µM, Pol 1 µM in LB.
Test [2] has as its target T2, ExoU (Pseudomonas aeruginosa, UniProt O34208). In words: ExoU in vitro phospholipase assay (real-time, dose-response). It counts as biochemical.
Test [3] deals with P. aeruginosa PA103. It counts as in vivo, Galleria mellonella.
The subject of test [4] is HCE-T cells infected with exoU⁺ clinical P. aeruginosa keratitis isolates. In words: CellDiscoverer 7 high-content screen, exoU+ isolates. Format: cell-based, human. To be noted: 4.5 h post-infection; Bis 10 µM, Zp 2.5 µM, Pol 1 µM; DMSO ~43%.
Test [5] has as its target T2, ExoU. The experiment in a line: nanoDSF thermal stability of ExoU. Format: binding. To be noted: 10 µM compound. Here is the method:
Thermal stability of recombinant His₆-ExoU was assessed using a Prometheus NT.48 instrument (NanoTemper Technologies, Cambridge, UK) without extrinsic dyes, as these were not compatible with the use of PIP2. ExoU was diluted to 5 µM in 20 mM TrisHCl-HCl (pH 8.2), 100 mM NaCl, and 10% (v/v) glycerol. To evaluate ligand effects, four samples were prepared: ExoU alone, ExoU with 5 µM PIP2, ExoU with 10 µM inhibitor, and ExoU with both 5 µM PIP2 and 10 µM indicated inhibitor, each maintaining 1% (v/v) DMSO. Ten microliters of each mixture were loaded into highsensitivity-sensitivity nanoDSF glass capillaries and subjected to a thermal ramp from 25 °C to 95 °C at 1 °C/min. Intrinsic tryptophan fluorescence emission at 330 nm and 350 nm was recorded continuously, and the ratio F₃₅₀/F₃₃₀ was plotted against temperature. Melting temperatures (Tₘ) were determined from the inflection point of the first derivative of the fluorescence ratio using the manufacturer’s analysis software. All conditions were measured in triplicate. Changes in melting temperature (Δ Tₘ) compared to DMSO, or DMSO PIP2 controls were plotted using GraphPad.
Supplementary file ppat.1014474.s008.tif: S7 Fig Nano differential scanning fluorimetry (nanoDSF) analysis of ExoU thermal stability in the presence of compounds. Raw melt curves of recombinant ExoU are shown in the absence (left) and presence (right) of PIP2 (5 µM) from three independent (A-C) experiments. Compounds were tested at 10 µM. Intrinsic tryptophan fluorescence emission was continuously monitored at 330 nm and 350 nm as the temperature increased, and the fluorescence ratio (F₃₅₀/F₃₃₀) was plotted against temperature. Melting temperatures (Tₘ) were calculated from the average inflection point of the first derivative of the fluorescence ratio using the manufacturer’s analysis software. (TIF)
A general note: Differential scanning fluorimetry follows unfolding on heating by fluorescence.

The target in a further test is T3, human PLA2G7 (Homo sapiens, UniProt Q13093).
T3 construct: 6xHis (N); made in house; host or cells: E. coli C43(DE3)
T3 sequence (Q13093 22-441): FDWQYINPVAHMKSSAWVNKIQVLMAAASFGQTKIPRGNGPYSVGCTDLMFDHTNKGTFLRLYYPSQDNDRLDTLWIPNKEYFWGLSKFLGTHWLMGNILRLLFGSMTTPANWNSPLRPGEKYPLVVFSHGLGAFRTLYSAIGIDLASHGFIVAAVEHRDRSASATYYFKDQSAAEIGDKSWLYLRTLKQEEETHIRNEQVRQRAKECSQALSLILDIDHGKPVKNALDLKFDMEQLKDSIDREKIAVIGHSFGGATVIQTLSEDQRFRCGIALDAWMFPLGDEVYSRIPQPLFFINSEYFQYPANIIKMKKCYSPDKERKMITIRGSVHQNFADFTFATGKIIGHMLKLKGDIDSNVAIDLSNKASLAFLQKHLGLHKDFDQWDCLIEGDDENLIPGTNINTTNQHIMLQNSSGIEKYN
The experiment in a line: Human phospholipase assay, 2-thio-PAF substrate. To be noted: 10 µM, S4 Fig. It counts as biochemical.

Test [6] relates to P. aeruginosa PA103. Further details: species or system porcine. The note with it: 48 hours.
The target in test [7] is T2, ExoU. The experiment in a line: BS3 cross-linking and SDS-PAGE of ExoU oligomerisation. The note with it: 10 µM inhibitor. Here is the method:
Four reaction mixtures (50 µL each) were prepared at room temperature: ExoU alone; ExoU with 5 µM PIP2; ExoU with 10 µM inhibitor; and ExoU with both 5 µM PIP2 and 10 µM inhibitor for 30 minutes at 25 °C. […] Reactions were quenched by addition of Tris HCl pH 7.4 to 50 mM and a further 15 min incubation at room temperature. […] Membranes were blocked in TBST containing 5% (w/v) non-fat milk for 1 h, then incubated overnight at 4 °C with mouse anti-His monoclonal antibody (Bio Rad; 1:2,000). After washing in TBST, membranes were incubated with HRP-conjugated goat anti-mouse IgG for 1 h at room temperature. Signal was detected by chemiluminescence with X ray film exposure, and band patterns were analysed to determine the distribution of monomeric and oligomeric ExoU species under each condition.

Entries after “also recorded” stand apart in the source; their conditions may differ. Like-named read-outs stand apart in the source and are kept apart here.

Take `O=C([O-])CC(O)(CC(=O)[O-])C(=O)[O-].O=C([O-])CC(O)(CC(=O)[O-])C(=O)[O-].[Bi+3].[K+].[K+].[K+]` [Bis, bismuth subcitrate]: the “Level of EGFP-tagged ExoU (S142A) by Western blot” value with EGFP-tagged ExoU (S142A) (5 µM, 16 h) is listed as “substantially reduced”. In addition, the “EGFP-ExoU (S142A) fluorescence and localisation (confocal)” value in the test on EGFP-tagged ExoU (S142A) (16 h) is “marked reduction; also recorded: redistributed into punctate structures that co-localised with RFP-LAMP1”. In addition, the “Pearson's correlation coefficient r, ExoU-lysosome (RFP-LAMP1) colocalisation” value with EGFP-tagged ExoU (S142A) (16 h compound treatment, DMSO r = 0.05) is 0.49. The “Inhibition of PLA2G4C” value on PLA2G4C is “no inhibition”. Also, the “Expression of exsA, pcrV, exoU in PA103, or exsA, pcrV, exoS in PAO1” value in test [1] is reported as “no significant changes”. For the same molecule, the IC50 on ExoU [2] (Fig 1B dose-response, PIP2 and ubiquitin present, read-out: IC50 for ExoU inhibition in vitro) is 12.8 ± 1 µM; on ExoU [2] (Fig 2C dose-response phospholipase assays, read-out: IC50 of bismuth-based ExoU inhibitors and subcitrate alone), 9.9 µM; on ExoU [2] (Fig 3C, three-parameter fit, read-out: IC50 for ExoU inhibition, individual inhibitors or equimolar combinations) it was 13.3 ± 2.9 µM. Also, the “Clinical score: mean±SD (health score 0-9)” value in the test on P. aeruginosa PA103 [3] (PA103 1 × 10⁵ CFU, Bis 0.1 mg/g, Zp 0.01 mg/g, Pol 0.004 mg/g, 40 h) is recorded as 4.17 ± 3.89. This molecule also displayed a Median survival with P. aeruginosa PA103 [3] (PA103-infected larvae, PA103 alone 16) of 16 h. The “Delay of disease progression” value with P. aeruginosa PA103 [3] (in a subset of larvae) is listed as “approximately 8 h”. The “Mean live-cell area relative to non-infected controls” value in [4] amounted to 55.8%. Besides, the “Decrease of ExoU Tm” value was “no measurable effect” at ExoU [5] (absence of PIP2) and ~ 2 °C on ExoU [5] (with 5 µM PIP2). For the same molecule, the “Inhibition of PLA2G7 enzymatic activity” value at human PLA2G7 is on record as “neither Bis, Pol, nor Zp inhibited enzymatic activity”. Moreover, the “Histology (H&E) of infected corneas” value in the test with P. aeruginosa PA103 [6] was “partial epithelial preservation and less stromal damage”. Also, the Corneal opacity entry in the test on P. aeruginosa PA103 [6] (Bis 5 µM, Zp 2.5 µM, Pol 1 µM topical) was “performing slightly better than Zp”. Also, the “Migration of BS3 cross-linked ExoU on SDS-PAGE” value at ExoU [7] (with PIP2) is listed as “single discrete high‐molecular‐weight band”; at ExoU [7] (without PIP2), “did not alter this profile”.

The term IC50 denotes the concentration that gives 50% inhibition.
